The values below come from paper PMC3983011 (2014).

Each structure is given as a SMILES string.

Common to all, as to settings: 150 mM NaCl, 5 mM MgCl2; 10 mM HEPES, pH 7.4, 25 °C; immobilised aptamer
Experiment [1] concerns minimal thiM TPP riboswitch (RNA, riboswitch) GGGACUCGGGGUGCCCUUCUGCGUGAAGGCUGAGAAAUACCCGUAUCACCUGAUCUGGAUAAUGCCAGCGUAGGGAAGUCCCCCAAAAAAAAAAAAAAAAAAAAAAAA
The experiment is described as follows: SPR kinetics, kd/ka, 1:1 fit. Background: SPR reads the build-up and loss of mass on a sensor chip optically.

The test system of experiment [2] is 44.Arg11 arginine aptamer (RNA, aptamer) GGGACGAGAAGGAGCGCUGGUUAUACUAGCAGGUAGGUCACUCGUCCCCCAAAAAAAAAAAAAAAAAAAAAAAA
Description: SPR, steady-state affinity fit.

For experiment [3], the system named is minimal MG-4 malachite green aptamer (RNA, aptamer) GGGAUCCCGACUGGCGAGAGCCAGGUAACGAAUGGAUCCCCCCAAAAAAAAAAAAAAAAAAAAAAAA
Description: SPR, steady-state affinity fit.

The test system is the same in experiment [4]. The experiment is described as follows: SPR kinetics, kd/ka, 1:1 fit.
Experiment [5] deals with 44.Cit11 citrulline aptamer (RNA, aptamer) GGGACGAGAAGGAGUGCUGGUUAUACUAGCGGUUAGGUCACUCGUCCCCCAAAAAAAAAAAAAAAAAAAAAAAA
Description: SPR, steady-state affinity fit.

Experiment [6] relates to DH25.42 ATP aptamer (DNA, aptamer) CCTGGGGGAGTATTGCGGAGGAAGGAAAAAAAAAAAAAAAAAAAAAAAA
The experiment is described as follows: SPR, steady-state affinity fit.

Experiment [7] has as its system 35FMN-2 flavin mononucleotide aptamer (RNA, aptamer) GGGCGUGUAGGAUAUCGUGUUCGAGAAGGACACGCCCCCCAAAAAAAAAAAAAAAAAAAAAAAA
Description: SPR kinetics, kd/ka, 1:1 fit.

Experiment [8] shares this test system. Description: SPR, steady-state affinity fit.
Experiment [9] deals with minimal Tyr 1 tyrosine aptamer (RNA, aptamer) GGGGGCAGUCAACUCGUAAGAUGGCCUUACAGCGGUCAAUACGGGGGUCAUCAGAUAGGGAGGCCCCCCAAAAAAAAAAAAAAAAAAAAAAAA
Description: SPR, steady-state affinity fit.

In experiment [10] the test system is TCT8-4 theophylline aptamer (RNA, aptamer) GGGAAGUGAUACCAGCAUCGUCUUGAUGCCCUUGGCAGCACUUCCCCCAAAAAAAAAAAAAAAAAAAAAAAA
Description: SPR, steady-state affinity fit.

Experiment [11] has the same test system. The experiment is described as follows: SPR kinetics, kd/ka, 1:1 fit.
For experiment [12], the system named is c-di-GMP class II riboswitch (RNA, riboswitch) GGGUAUUUAUAGAAACUGUGAAGUAUAUCUUAAACCUGGGCACUUAAAAGAUAUAUGGAGUUAGUAGUGCAACCUGCUAUAAAUACCCCAAAAAAAAAAAAAAAAAAAAAAAA
The experiment is described as follows: SPR kinetics, kd/ka, 1:1 fit.

The test system is the same in experiment [13]. The experiment is described as follows: SPR, steady-state affinity fit.

On to `Cc1ncc(C[n+]2csc(CCOP(=O)(O)OP(=O)(O)O)c2C)c(N)n1`, for which the “KD,kinetic” value in experiment [1] worked out at 0.00089 ± 0.0008 µM.
Take `N=C(N)NCCC[C@H](N)C(=O)O`: in experiment [2], the “KD,equilibrium” value amounted to 140 ± 40 µM.
As for `CN(C)c1ccc(C(=C2C=CC(=[N+](C)C)C=C2)c2ccccc2)cc1`, the “KD,equilibrium” value in [3] is 2.0 ± 0.1 µM. Also, the “KD,kinetic” value in experiment [4] is 0.95 ± 0.34 µM.
Consider `NC(=O)NCCC[C@H](N)C(=O)O`, for which the “KD,equilibrium” value in [5] worked out at 31 ± 1 µM.
With `Nc1ncnc2c1ncn2[C@@H]1O[C@H](COP(=O)(O)OP(=O)(O)OP(=O)(O)O)[C@@H](O)[C@H]1O`, the “KD,equilibrium” value in [6] was 8.8 ± 3.0 µM.
In the case of `Cc1cc2nc3c(=O)[nH]c(=O)nc-3n(C[C@H](O)[C@H](O)[C@H](O)COP(=O)(O)O)c2cc1C`, the “KD,kinetic” value in [7] was 1.1 ± 0.4 µM. Also, in experiment [8], the “KD,equilibrium” value came to 0.71 ± 0.02 µM.
As to `N[C@@H](Cc1ccc(O)cc1)C(=O)O`, in experiment [9], the “KD,equilibrium” value was found to be 17 ± 6 µM.
Consider `Cn1c(=O)c2[nH]cnc2n(C)c1=O`, for which the “KD,equilibrium” value in experiment [10] is 0.34 ± 0.02 µM. Besides, in experiment [11], the “KD,kinetic” value came out at 0.43 ± 0.04 µM.
With `Nc1nc2c(ncn2[C@@H]2O[C@@H]3COP(=O)(O)O[C@H]4[C@@H](O)[C@H](n5cnc6c(=O)[nH]c(N)nc65)O[C@@H]4COP(=O)(O)O[C@H]3[C@H]2O)c(=O)[nH]1`, in [12], the “KD,kinetic” value was 0.06 ± 0.031 µM. Further, the “KD,equilibrium” value in experiment [13] came to 0.12 ± 0.02 µM.
